# Measurements from the supplement of paper PMC10307832.
# Experiments:
# Assay in all cases: relative viability (nuclei count vs DMSO), 5 days (fraction); higher = more cells survive
# MK-8033 + Crizotinib = compound: Cn1cc(-c2cnc3ccc4ccc(CS(=O)(=O)NCc5ccccn5)cc4c(=O)c3c2)cn1 [MK-8033] + C[C@@H](Oc1cc(-c2cnn(C3CCNCC3)c2)cnc1N)c1c(Cl)ccc(F)c1Cl [Crizotinib] (partner 1 µM)
# Outline: (§1)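 Relative viability was taken as the ratio of nuclei in treated wells to nuclei in vehicle wells. Lung cancer cell lines in 1536-well plates received compounds by pin tool one day after seeding, either one drug alone or a fixed anchor-drug dose plus five library-drug doses (not always all listed) in √10 steps. Nuclei were counted on 4× images after 5 days of treatment, and values are medians of duplicate plates.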
# MK-8033 + OSI-027 = compound: Cn1cc(-c2cnc3ccc4ccc(CS(=O)(=O)NCc5ccccn5)cc4c(=O)c3c2)cn1 [MK-8033] + COc1cccc2cc(-c3nc([C@H]4CC[C@H](C(=O)O)CC4)n4ncnc(N)c34)[nH]c12 [OSI-027] (partner 0.5 µM)
# Outline: as §1
# RU-SKI 43 + Vorinostat = compound: CC[C@@H](C)CNCC(=O)N1CCC2=C([C@@H]1COC3=CC=CC(=C3)C)C=CS2 [RU-SKI 43] + O=C(CCCCCCC(=O)Nc1ccccc1)NO [Vorinostat] (partner 1 µM)
# Outline: as §1
Cell Line,relative viability (MK-8033 + Crizotinib; first compound 0.02 µM),relative viability (MK-8033 + Crizotinib; first compound 0.06325 µM),relative viability (MK-8033 + Crizotinib; first compound 0.2 µM),relative viability (MK-8033 + Crizotinib; first compound 0.6325 µM),relative viability (MK-8033 + Crizotinib; first compound 2 µM),relative viability (MK-8033 + OSI-027; first compound 0.02 µM),relative viability (MK-8033 + OSI-027; first compound 0.06325 µM),relative viability (MK-8033 + OSI-027; first compound 0.2 µM),relative viability (MK-8033 + OSI-027; first compound 0.6325 µM),relative viability (MK-8033 + OSI-027; first compound 2 µM),relative viability (RU-SKI 43 + Vorinostat; first compound 0.1 µM),relative viability (RU-SKI 43 + Vorinostat; first compound 0.3162 µM),relative viability (RU-SKI 43 + Vorinostat; first compound 1 µM),relative viability (RU-SKI 43 + Vorinostat; first compound 3.162 µM),relative viability (RU-SKI 43 + Vorinostat; first compound 10 µM)
SW 1573,0.798,0.743,0.752,0.416,0.695,0.818,0.529,0.544,0.603,0.513,0.746,0.997,0.963,0.934,0.767
HOP-62,0.857,0.899,0.808,0.894,0.878,0.83,0.821,0.756,0.84,0.896,0.563,0.693,0.632,0.724,0.639
NCI-H1651,0.852,0.832,0.846,0.938,0.862,0.735,0.541,0.757,0.646,0.699,0.617,0.573,0.676,0.559,0.548
CAL-12T,0.62,0.608,0.646,0.693,0.474,0.551,0.655,0.519,0.695,0.536,0.77,0.89,0.909,0.699,0.692
NCI-H2126,1.04,0.927,0.973,0.976,0.951,0.752,0.666,0.764,0.595,0.808,0.793,0.864,0.819,0.906,0.781
NCI-H650,0.648,0.753,1,0.778,0.712,0.539,0.527,0.491,0.503,0.554,0.497,0.369,,0.455,0.459
COR-L 105,0.797,0.696,0.917,0.861,0.802,0.687,0.429,0.635,0.638,0.671,0.8,0.913,0.796,0.886,0.895
LK-2,0.228,0.226,0.244,0.23,0.25,0.202,0.227,0.22,0.189,0.276,0.294,0.265,0.363,0.301,0.224
NCI-H2347,0.752,0.667,0.665,0.618,0.823,0.395,0.399,0.406,0.454,0.422,0.511,0.621,0.674,0.595,0.566
PC-14,0.932,0.81,0.875,0.889,0.817,0.835,0.742,0.828,0.773,0.73,0.661,0.69,0.739,0.86,0.585
NCI-H2170,1.08,1.18,1.05,1.18,1.18,0.682,0.639,0.7,0.732,0.707,0.831,1.06,0.763,0.843,0.889
LOU-NH91,0.724,,0.715,0.732,0.75,0.74,0.453,0.7,0.667,0.752,1.01,0.871,1.03,0.979,0.902
NCI-H596,0.913,0.941,0.921,0.991,1.01,0.798,0.612,0.607,0.706,0.599,0.853,0.534,0.669,0.589,0.501
LXF-289,0.738,0.77,0.777,0.819,0.773,0.809,0.668,0.667,0.83,0.806,0.725,0.784,0.796,0.634,0.84
NCI-H727,0.811,0.677,0.754,0.886,0.792,0.667,,0.652,0.583,0.551,,1.13,1.13,1.08,1.23
NCI-H2009,1.08,1.07,0.579,1.11,1.03,0.628,0.612,0.597,0.617,0.626,0.692,0.757,0.751,0.693,0.679
NCI-H1993,0.734,0.658,0.836,0.668,0.819,0.519,0.583,0.561,0.598,0.527,0.717,0.969,0.769,1.08,0.659
HCC-366,0.45,0.525,0.59,0.363,0.504,1.1,0.85,0.838,0.945,0.791,0.276,0.493,0.439,0.438,0.328
NCI-H322M,0.855,0.778,0.835,0.939,0.954,0.568,0.442,0.598,0.604,0.524,0.83,0.925,0.911,0.998,0.782
